The nature of this experiment: EBV protein-peptide binding inhibitors, dose response, biochemical, fluorescence polarization (AID 1419). The settings on record: cell-free protein-peptide binding, 2 h; for fold change: measured here: P channel fold over control, at 54 µM.

The text below walks through data of PubChem BioAssay AID1419 (Emory University Molecular Libraries Screening Center, 2008).

Activity calls are given as the source filed them. The rule behind the calls is not given here. Bounds are passed on as bounds.

On to `COC(=O)c1ccc2c(=O)sc(N3CCC(C(N)=O)CC3)nc2c1`, for which the half-maximal inhibitory concentration (IC50) is 4 µM and the fold change was determined as 2.35.

As to `Cc1c(C#N)c2ncnc(-c3ccccc3)c2n1-c1ccccc1`, the IC50 is > 54 µM (inactive) and the fold change was determined as 1.02.

For `COc1ccc(-c2nnc(Nc3ccc(S(=O)(=O)Nc4nccs4)cc3)c3ccccc23)cc1`, the IC50 is > 54 µM (inactive) and the fold change came to 1.09.

In the case of `O=C(CSc1nc(-c2ccc(F)cc2)nc2c1Cc1ccccc1O2)Nc1ccc(C(=O)O)cc1`, the half-maximal inhibitory concentration (IC50) was 2.9 µM and the fold change turned out to be 1.11.

On to `O=C(OCCN1C(=O)c2cccc3c(N4CCOCC4)ccc(c23)C1=O)c1cc(Cl)cc(Cl)c1`, for which the IC50 is 1.42 µM and the fold change amounted to 49.6.

Consider `Cc1cc(/C=C(\C#N)c2nc3ccccc3[nH]2)c(C)n1C`, for which the IC50 was 1.32 µM and the fold change was 6.63.

Take `COc1cc(C2C(C#N)=C(N)OC3=C2C(=O)CC(C)(C)C3)c([N+](=O)[O-])cc1OC` (stereo unspecified): the 50% inhibitory concentration (IC50) is 6.61 µM and the fold change worked out at 1.98.

For the molecule `Cc1ccc(-c2nc(SCC(=O)Nc3ccccc3OC(F)F)c3c(C)c(C(=O)O)sc3n2)cc1`, the half-maximal inhibitory concentration (IC50) is 18.2 µM and the fold change stood at 1.05.

Turning to `CCN(CC)CCN1C(=O)c2cccc3cc(N)cc(c23)C1=O`, the IC50 was 3.39 µM and the fold change was 3.91.

As for `CCc1cc[n+](-c2nc3ccccc3nc2[N-]S(=O)(=O)c2ccc(Br)s2)cc1`, the half-maximal inhibitory concentration (IC50) was 3.71 µM and the fold change is 3.49.

`COc1cc(-c2ccc(Nc3ccccc3C(=O)O)c(OC)c2)ccc1Nc1ccccc1C(=O)O`: the IC50 is > 54 µM (inactive) and the fold change is 0.9.

For the molecule `Nn1c(Cc2ccccc2F)nnc1SCC(=O)N1CC(=O)Nc2ccccc21`, the IC50 is > 54 µM (inactive) and the fold change was 1.

As for `CCN(CC)c1ccc2c(c1)oc(=O)c1c(Cl)cc(=O)oc12`, the IC50 is 6.37 µM and the fold change turned out to be 11.9.

For the molecule `O=C1c2cccc3c(O)ccc(c23)C(=O)N1Cc1ccco1`, the half-maximal inhibitory concentration (IC50) was less than 0.42 µM and the fold change is 134.

With `COc1ccc(/C(O)=C/c2nc3ccccc3n(-c3ccccc3)c2=O)cc1`, the IC50 is > 54 µM (inactive) and the fold change stood at 17.

For `Cc1ccc(NC(=O)/C(C#N)=C(\N)C(Cl)(Cl)Cl)nc1`, the half-inhibitory concentration (IC50) is 0.53 µM and the fold change turned out to be 13.

Take `CCCCN1C(=O)/C(=C/C=C2\Oc3ccccc3N2CC)SC1=S`: the half-maximal inhibitory concentration (IC50) is 5.36 µM and the fold change is 13.9.

Turning to `Cc1ccc(OCCn2c(C3CC(=O)N(Cc4ccccc4)C3)nc3ccccc32)cc1` (stereo unspecified), the IC50 is > 54 µM (inactive) and the fold change is 1.15.

As to `Cc1ccc(NC(=O)CN2C(=O)N/C(=C/c3cccn3-c3ccc(C(=O)O)cc3)C2=O)cc1`, the IC50 is > 54 µM (inactive) and the fold change was found to be 1.2.

Take `C#CCn1cc(C=C2C(=O)c3ccccc3C2=O)c2ccccc21`: the IC50 is 9.87 µM and the fold change is 4.31.

For `COc1ccc(-c2nnc(-c3cc4c(ccc5ccccc54)oc3=O)o2)cc1`, the IC50 was 12.9 µM and the fold change was 4.21.

For the molecule `COc1cc(/C=C2/C(=O)c3cccc([N+](=O)[O-])c3C2=O)c(Br)cc1O`, the IC50 is > 54 µM (inactive) and the fold change amounted to 0.647.

`COc1ccc(-c2onc3ccc(Br)cc23)cc1`: the IC50 was 0.86 µM and the fold change came to 7.24.

As to `Cc1ccc(N=Nc2c(N)[nH]n3c(=O)cc(-c4ccccc4)nc23)cc1`, the IC50 is > 54 µM (inactive) and the fold change came out at 1.02.

Consider `Cc1cc(N2CCCC2)ccc1C=C(C#N)C#N`, for which the IC50 is 1.86 µM and the fold change worked out at 15.3.

In the case of `CCCn1nc(-c2ccccc2)c2nc3ccccc3nc21`, the IC50 was 2.37 µM and the fold change was 32.

In the case of `Cn1c(SCC(=O)Nc2ccc3nc(SCC(=O)N4CCCC4)sc3c2)nnc1-c1ccc(N)cc1`, the IC50 was 36.4 µM (inactive) and the fold change turned out to be 1.12.

As for `COc1nc(NCCC2=CCCCC2)nc(OC)n1`, the IC50 was > 54 µM (inactive) and the fold change was 1.

On to `CCOc1cccc(C2C(C(=O)c3ccc(C)o3)=C(O)C(=O)N2c2nccs2)c1` (stereo unspecified), for which the IC50 was less than 0.42 µM and the fold change was 8.6.

With `CCN(CC)C(=O)CSc1nnc2nnc3cc(Cl)ccc3n12`, the IC50 is 4.38 µM and the fold change is 3.1.

As for `CCCCNc1c2c3c(cccc3n(C)c1=O)C(=O)c1ccccc1-2`, the IC50 is less than 0.42 µM and the fold change amounted to 150.

With `O=C(N=Nc1c(O)[nH]c2ccccc12)c1cc(-c2ccc(F)cc2)n[nH]1`, the IC50 is > 54 µM (inactive) and the fold change was found to be 0.81.

With `Nc1cc2nc3ccccc3nc2cc1N`, the half-maximal inhibitory concentration (IC50) was less than 0.42 µM and the fold change was 24.2.

As for `Cc1ccc2[nH]c(O)c(N=NC(=O)c3ccc(NS(=O)(=O)c4cccs4)cc3)c2c1`, the IC50 is > 54 µM (inactive) and the fold change worked out at 0.957.

Regarding `Oc1ccc2ccccc2c1N=Nc1ccc(F)cc1`, the IC50 was > 54 µM (inactive) and the fold change was 1.24.

For the molecule `CCCOc1cc(N(CC)CC)ccc1/C=C(/C#N)c1nc2ccc(C)cc2[nH]1`, the IC50 was 11.8 µM and the fold change was found to be 12.9.

As for `COc1ccc2nc(N3CCCCC3)c(C#N)cc2c1`, the half-inhibitory concentration (IC50) is 4.61 µM and the fold change amounted to 3.52.

In the case of `O=c1[nH]c(=O)n(Cc2ccccc2Cl)c(O)c1/C=C1/C=CC=N1`, the IC50 was > 54 µM (inactive) and the fold change amounted to 1.75.

Turning to `Cc1cc(-c2cccs2)c2c(N)c(C(=O)c3ccc4c(c3)OCO4)sc2n1`, the IC50 is 5.56 µM and the fold change was determined as 6.29.

For `CCOc1ccc(-n2c(O)c(C=Nc3ccc(N(CC)CC)cc3)c(=O)[nH]c2=O)cc1`, the concentration for half-maximal inhibition (IC50) was 7.18 µM and the fold change is 9.37.

As to `C=CCn1c(=O)/c(=C/c2cc(OC)c(OC)c(OC)c2)s/c1=C(/C#N)c1nc2ccccc2n1C`, the IC50 is 3.5 µM and the fold change is 15.9.

As for `Cc1c(N=C2N=C(NC(=O)c3cccs3)c3ccccc32)c(=O)n(-c2ccccc2)n1C`, the half-inhibitory concentration (IC50) is 3.19 µM and the fold change amounted to 4.49.

Take `Cc1ccc(C(=O)Nn2c(O)c(C=C3N=c4ccccc4=N3)sc2=S)cc1`: the IC50 was > 54 µM (inactive) and the fold change is 1.04.

In the case of `CCCCCC(=O)N/N=C/c1ccc(N(C)C)cc1`, the IC50 was > 54 µM (inactive) and the fold change stood at 1.05.

Consider `CCn1nc(-c2ccccc2)nc2c(=O)n(C)c(=O)nc1-2`, for which the half-inhibitory concentration (IC50) is 4.3 µM and the fold change amounted to 4.56.

Consider `Cc1c2cc(O)c(=O)cc-2oc2cc(O)c(O)cc12`, for which the 50% inhibitory concentration (IC50) was 1 µM and the fold change is 236.

As for `CC(C)Nc1nc(Cl)nc(N(C#N)CN2C(=O)c3ccccc3S2(=O)=O)n1`, the IC50 was > 54 µM (inactive) and the fold change stood at 0.923.

On to `O=C(/C(=C(\[O-])c1ccccc1)[n+]1ccc2ccccc2c1)c1ccccc1`, for which the IC50 was 4.31 µM and the fold change was determined as 3.02.
